This note sets out measurements from ChEMBL document CHEMBL5214910, “Rational Design of Dipicolylamine-Containing Carbazole Amphiphiles Combined with Zn2+ as Potent Broad-Spectrum Antibacterial Agents with a Membrane-Disruptive Mechanism” (J Med Chem, 2021).

Some results are limits rather than exact numbers.

By MIC is commonly meant the smallest concentration in the dilution series that meets the test's criterion for growth inhibition.

Format in all cases: functional
For assay [1], the system named is Staphylococcus aureus. Put plainly: Antibacterial activity against Methicillin-resistant Staphylococcus aureus NCTC10442 assessed as inhibition of bacterial growth incubated for 24 hrs in the presence of 0.39 ug/mL Zn2+ by Muller hinton broth based dilution assay.
Assay [2] relates to Staphylococcus aureus. Nature of the assay: Antibacterial activity against Methicillin-resistant Staphylococcus aureus NCTC10442 assessed as inhibition of bacterial growth incubated for 24 hrs in the presence of […] ug/mL Zn2+ by Muller hinton broth based dilution assay.
In assay [3] the test system is Pseudomonas aeruginosa. Put plainly: Antibacterial activity Pseudomonas aeruginosa ATCC 9027 assessed as inhibition of bacterial growth incubated for 24 hrs in the presence of 0.78 ug/mL Zn2+ by Muller hinton broth based dilution assay.

As to `CC(C)=CCn1c2ccccc2c2c(OCC(O)CN(Cc3ccccn3)Cc3ccccn3)cccc21` (stereo not drawn), the MIC was 1.56 µg/mL in assay [1], 1.56 µg/mL in assay [2] and more than 50 µg/mL in assay [3].
